Here are results for 13 molecules from patent publication US9090576B2, “2-substituted-p-quinone derivatives for treatment of oxidative stress diseases” (Edison Pharmaceuticals, Inc., priority 2008, dated 2015).

For orientation: EC50 means the concentration needed to bring the measured effect to its halfway point.

Common to all, as to type: cell-based
In assay [1] the test system is Human dermal fibroblasts from Friedreich's Ataxia patients. The experiment in a line: Rescue of BSO-stressed FRDA fibroblasts (Calcein AM viability). The note with it: BSO-stressed FRDA fibroblasts (GM04078), less than about 150 nM, read-out: EC50, protection against FRDA. On the procedure:
An initial screen was performed to identify compounds effective for the amelioration of redox disorders. Test samples, 4 reference compounds (Idebenone, decylubiquinone, Trolox and α-tocopherol acetate), and solvent controls were tested for their ability to rescue FRDA fibroblasts stressed by addition of L-buthionine-(S,R)-sulfoximine (BSO), as described in Jauslin et al., Hum. Mol. Genet. 11(24):3055 (2002), Jauslin et al., FASEB J. 17:1972-4 (2003), and International Patent Application WO 2004/003565. […] This specific BSO-mediated cell death can be prevented by administration of antioxidants or molecules involved in the antioxidant pathway, such as α-tocopherol, selenium, or small molecule glutathione peroxidase mimetics. However, antioxidants differ in their potency, i.e. the concentration at which they are able to rescue BSO-stressed FRDA fibroblasts.
MEM (a medium enriched in amino acids and vitamins, catalog no. 1-31F24-I) and Medium 199 (M199, catalog no. 1-21F22-I) with Earle's Balanced Salts, without phenol red, were purchased from Bioconcept. Fetal Calf Serum was obtained from PAA Laboratories. Basic fibroblast growth factor and epidermal growth factor were purchased from PeproTech. Penicillin-streptomycin-glutamine mix, L-buthionine (S,R)-sulfoximine, (+)-α-tocopherol acetate, decylubiquinone, and insulin from bovine pancreas were purchased from Sigma. Trolox (6-hydroxy-2,5,7,8-tetramethylchromane-2-carboxylic acid) was obtained from Fluka. Idebenone was obtained from Chemo Iberica. Calcein AM was purchased from Molecular Probes. Cell culture medium was made by combining 125 ml M199 EBS, 50 ml Fetal Calf Serum, 100 U/ml penicillin, 100 μg/ml streptomycin, 2 mM glutamine, 10 μg/ml insulin, 10 ng/ml EGF, and 10 ng/ml bFGF; MEM EBS was added to make the volume up to 500 ml. A 10 mM BSO solution was prepared by dissolving 444 mg BSO in 200 ml of medium with subsequent filter-sterilization. During the course of the experiments, this solution was stored at +4° C. The cells were obtained from the Coriell Cell Repositories (Camden, N.J.; repository number GM04078) and grown in 10 cm tissue culture plates. Every third day, they were split at a 1:3 ratio.
The test samples were supplied in 1.5 ml glass vials. The compounds were diluted with DMSO, ethanol or PBS to result in a 5 mM stock solution. Once dissolved, they were stored at −20° C. Reference antioxidants (Idebenone, decylubiquinone, α-tocopherol acetate and trolox) were dissolved in DMSO.
Test samples were screened according to the following protocol:
(§1) A culture with FRDA fibroblasts was started from a 1 ml vial with approximately 500,000 cells stored in liquid nitrogen. Cells were propagated in 10 cm cell culture dishes by splitting every third day in a ratio of 1:3 until nine plates were available. Once confluent, fibroblasts were harvested. For 54 micro titer plates (96 well-MTP) a total of 14.3 million cells (passage eight) were re-suspended in 480 ml medium, corresponding to 100 μl medium with 3,000 cells/well. The remaining cells were distributed in 10 cm cell culture plates (500,000 cells/plate) for propagation. The plates were incubated overnight at 37° C. in an atmosphere with 95% humidity and 5% CO2 to allow attachment of the cells to the culture plate.
(§2) MTP medium (243 μl) was added to a well of the microtiter plate. The test compounds were unfrozen, and 7.5 μl of a 5 mM stock solution was dissolved in the well containing 243 μl medium, resulting in a 150 μM master solution. Serial dilutions from the master solution were made. The period between the single dilution steps was kept as short as possible (generally less than 1 second).
Plates were kept overnight in the cell culture incubator. The next day, 10 μl of a 10 mM BSO solution were added to the wells, resulting in a 1 mM final BSO concentration. Forty-eight hours later, three plates were examined under a phase-contrast microscope to verify that the cells in the 0% control (wells E1-H1) were clearly dead. […]

Assay [2] concerns human dermal fibroblasts from Huntington's patients. The assay can be described thus: Rescue of BSO-stressed fibroblasts from Huntington's patients (screen as Example A). The note with it: Fibroblast, BSO-stressed Huntington's fibroblasts (GM 04281), less than about 150 nM, read-out: EC50, protection against Huntington's. On the procedure: as §1, §2
(§3) Plates were kept overnight in the cell culture incubator. The next day, 10 μl of a 10 mM BSO solution were added to the wells, resulting in a 1 mM final BSO concentration. Forty-eight hours later, three plates were examined under a phase-contrast microscope to verify that the cells in the 0% control (wells E1-H1) were clearly dead. The medium from all plates was discarded, and the remaining liquid was removed by gently tapping the plate inversed onto a paper towel.
(§4) 100 μl of PBS containing 1.2 μM Calcein AM were then added to each well. The plates were incubated for 50-70 minutes at room temperature. After that time the PBS was discarded, the plate gently tapped on a paper towel and fluorescence (excitation/emission wavelengths of 485 nm and 525 nm, respectively) was read on a Gemini fluorescence reader. Data was imported into Microsoft Excel (EXCEL is a registered trademark of Microsoft Corporation for a spreadsheet program) and used to calculate the EC50 concentration for each compound.
Compounds of the invention were tested using the screen as described in Example A, but substituting FRDA cells with Huntington's cells obtained from the Coriell Cell Repositories (Camden, N.J.; repository number GM 04281). The compounds were tested for their ability to rescue human dermal fibroblasts from Huntington's patients from oxidative stress.

For assay [3], the system named is human dermal fibroblasts from LHON patients. The assay can be described thus: Rescue of BSO-stressed fibroblasts from LHON patients (screen as Example A). Conditions: Fibroblast, BSO-stressed LHON fibroblasts (GM03858), less than about 150 nM, read-out: EC50, protection against LHON. How it is done: as §1, §2, §3, §4
Compounds of the invention were screened as described in Example A, but substituting FRDA cells with Leber's Hereditary Optic Neuropathy (LHON) cells obtained from the Coriell Cell Repositories (Camden, N.J.; repository number GM03858). The compounds were tested for their ability to rescue human dermal fibroblasts from LHON patients from oxidative stress.

Turning to `CC1=C(C)C(=O)C(CCNC(=O)NCCN2CCOCC2)=C(C)C1=O` [1-(2-morpholinoethyl)-3-(2-(2,4,5-trimethyl-3,6-dioxocyclohexa-1,4-dienyl)ethyl)urea], the EC50 in assay [1], in assay [2] and in assay [3] was < 150 nM in each case.

For `CCNC(=O)NCCC1=C(CCC(C)(C)O)C(=O)C(C)=C(C)C1=O` [1-Ethyl-3-(2(2-(3-hydroxy-3-methylbutyl)-4,5-dimethyl-3,6-dioxocyclohexa-1,4-dienyl)ethyl)urea], the EC50 in assay [1], in assay [2] and in assay [3] was < 150 nM each time.

With `CC1=C(C)C(=O)C(CCN(C)C(=O)Cc2ccc(Cl)cc2)=C(C)C1=O` [2-(4-chlorophenyl)-N-methyl-N-(2-(2,4,5-trimethyl-3,6-dioxocyclohexa-1,4-dienyl)ethyl)acetamide], the EC50 in assay [1], in assay [2] and in assay [3] was < 150 nM throughout.

Take `CC1=C(C)C(=O)C(CCC(C)C(=O)NCCc2ccccc2)=C(C)C1=O` (stereo not drawn) [2-methyl-N-phenethyl-4-(2,4,5-trimethyl-3,6-dioxocyclohexa-1,4-dienyl)butanamide]: the EC50 in assay [1], in assay [2] and in assay [3] was < 150 nM each time.

Regarding `CC1=C(C)C(=O)C(CCN(C)C(=O)NCCN(C)C)=C(C)C1=O` [3-(2-(dimethylamino)ethyl)-1-methyl-1-(2-(2,4,5-trimethyl-3,6-dioxocyclohexa-1,4-dienyl)ethyl)urea], the EC50 in assay [1], in assay [2] and in assay [3] was < 150 nM in each case.

Turning to `CC(=O)c1ccc(C(=O)NCCC2=C(C)C(=O)C(C)=C(C)C2=O)cc1` [4-acetyl-N-(2-(2,4,5-trimethyl-3,6-dioxocyclohexa-1,4-dienyl)ethyl)benzamide], the EC50 in assay [1], in assay [2] and in assay [3] was < 150 nM throughout.

Take `CC(=O)N1CCN(C(=O)NCCC2=C(C)C(=O)C(C)=C(C)C2=O)CC1` [4-acetyl-N-(2-(2,4,5-trimethyl-3,6-dioxocyclohexa-1,4-dienyl)ethyl)piperazine-1-carboxamide]: the EC50 in assay [2] and in assay [3] was < 150 nM throughout.

With `CC1=C(C)C(=O)C(CCNC(=O)c2ccc(C)cc2)=C(C)C1=O` [4-methyl-N-(2-(2,4,5-trimethyl-3,6-dioxocyclohexa-1,4-dienyl)ethyl)benzamide], the EC50 in assay [1], in assay [2] and in assay [3] was < 150 nM in each case.

`CC1=C(C)C(=O)C(CCNC(=O)N2CCN(C)CC2)=C(C)C1=O` [4-methyl-N-(2-(2,4,5-trimethyl-3,6-dioxocyclohexa-1,4-dienyl)ethyl)piperazine-1-carboxamide]: the 50% effective concentration (EC50) in assay [1], in assay [2] and in assay [3] was < 150 nM throughout.

As to `CC1=C(C)C(=O)C(CCC(C)(C)O)=C(CCNC(=O)CCCCC2CCSS2)C1=O` (stereo not drawn) [5-(1,2-Dithiolan-3-yl)-N-(2-(2-(3-hydroxy-3-methylbutyl)-4,5-dimethyl-3,6-dioxocyclohexa-1,4-dienyl)ethyl)pentanamide], the EC50 in assay [1], in assay [2] and in assay [3] was < 150 nM in each case.

On to `CC1=C(C)C(=O)C(CCNC(=O)c2ccccc2)=C(C)C1=O` [N-(2-(2,4,5-trimethyl-3,6-dioxocyclohexa-1,4-dienyl)ethyl)benzamide], for which the EC50 in assay [1], in assay [2] and in assay [3] was < 150 nM throughout.

`CCCCCC(=O)NCCC1=C(CCC(C)(C)O)C(=O)C(C)=C(C)C1=O` [N-(2-(2-(3-Hydroxy-3-methylbutyl)-4,5-dimethyl-3,6-dioxocyclohexa-1,4-dienyl)ethyl)hexanamide]: the EC50 in assay [2] and in assay [3] was < 150 nM throughout.

On to `CC1=C(C)C(=O)C(CCCC(=O)NCCc2ccccn2)=C(C)C1=O` [N-(2-(pyridin-2-yl)ethyl)-4-(2,4,5-trimethyl-3,6-dioxocyclohexa-1,4-dienyl)butanamide], for which the EC50 in assay [2] and in assay [3] was < 150 nM throughout.
